These results are taken from paper PMC3025356, “Mechanism of the Ca^2+-Dependent Interaction between S100A4 and Tail Fragments of Nonmuscle Myosin Heavy Chain IIA” (Journal of Molecular Biology, 2011).

For assay [1], the target named is T1, S100A4 (Homo sapiens, UniProt P26447).
T1 construct: We used full-length S100A4 for this analysis; made in house; host or cells: Escherichia coli BL21(DE3)
The experiment in a line: Quin-2 fluorescence, Ca^2+ dissociation from S100A4 in the presence of target peptides. It is filed as binding. Here is the method: Ca^2+ dissociation measurements for wild-type S100A4, using Quin-2 as described above, were repeated as a control for the effect of target peptides on this process. On mixing 10 μM S100A4 in the presence of Ca^2+ with 100 μM Quin-2, the observed profile was fitted to a single exponential with kobs = 17 s^− 1 (Fig. 5a; cf. k− 1 in Scheme 1).
Fig. 5 Dissociation of Ca^2+ from S100A4 in the absence and in the presence of target peptides monitored using Quin-2 fluorescence. (a) Mixed with 100 μM Quin-2 was 10 μM S100A4 + 50 μM Ca^2+ (stopped-flow reaction chamber concentrations). A superposed fit to a single exponential yields kobs = 17 s^− 1. […] (d) As in (a), but with 2.5 μM M200 premixed with 5 μM S100A4. A biphasic exponential fit yielded rate constants of 13 s^− 1 (A = 26%) and 0.30 s^− 1 (A = 74%). […] Experiments were carried out in either 20 mM NaCl, 20 mM Tris, 1 mM DTT, and 100 μM Ca^2+ at pH 7.5 and 20 °C (a and b; cf. Malashkevich et al.[17]), or 100 mM NaCl, 10 mM Hepes, and 100 μM Ca^2+ at pH 7.5 and 20 °C (c and d). […] Rate constants were unaffected by the inclusion of 1 mM Mg^2+.
Stopped-flow measurements were carried out using an SX18-MV apparatus (Applied Photophysics Ltd., Leatherhead, UK) with a dead time of 1.5 ms.[40] Records were generally captured on a logarithmic time base. Absorption (turbidity) measurements were usually recorded using a 10-mm pathlength, while fluorescence was recorded with a 2-mm pathlength for excitation and emission. The stated concentrations of components refer to the reaction chamber after mixing, unless otherwise indicated. Tyrosine fluorescence was excited at 280 nm, and the emission was collected through a UG11 bandpass filter plus a 305-nm longpass filter.[18] Fluorescein fluorescence was excited at 480 nm, and the emission was detected through a 515-nm longpass filter. Quin-2 fluorescence was measured by excitation at 336 nm, and emission was collected with a 455-nm longpass filter. For simultaneous recording of light scatter, a second channel was monitored through a UG11 filter. […]

Assay [2] has as its target T1, S100A4. The assay can be described thus: Stopped-flow fluorescein fluorescence, kinetics of myosin peptide binding to S100A4. To be noted: modelled. Here is the method: Stopped-flow measurements were carried out using an SX18-MV apparatus (Applied Photophysics Ltd., Leatherhead, UK) with a dead time of 1.5 ms.[40] Records were generally captured on a logarithmic time base. Absorption (turbidity) measurements were usually recorded using a 10-mm pathlength, while fluorescence was recorded with a 2-mm pathlength for excitation and emission. The stated concentrations of components refer to the reaction chamber after mixing, unless otherwise indicated. Tyrosine fluorescence was excited at 280 nm, and the emission was collected through a UG11 bandpass filter plus a 305-nm longpass filter.[18] Fluorescein fluorescence was excited at 480 nm, and the emission was detected through a 515-nm longpass filter. Quin-2 fluorescence was measured by excitation at 336 nm, and emission was collected with a 455-nm longpass filter. For simultaneous recording of light scatter, a second channel was monitored through a UG11 filter. Rate constants were obtained by fitting to single-exponential or double-exponential functions using Kaleidagraph (Synergy Software) or Applied Photophysics Pro-Data software. Modeling of kinetic schemes was performed using Berkeley Madonna software.
The value of K5 (scheme 2) was estimated from two independent experiments. From the competition
(§1) A second estimate was calculated from the apparent Ca2+ binding constant observed in the turbidity assay […]
Fig. S2. (a) Displacement of 0.1
monitored by fluorescein emission intensity. […] (b)
Ca2+ was mixed with 1 mM EGTA. […] Note in these
stopped-flow measurements of fluorescein intensity, no polarising optics were present at the magic angle

Assay [3] concerns the target T1, S100A4. The experiment in a line: Summary of rate and equilibrium constants defined according to Scheme 1. It is filed as binding. From the text: The interaction of myosin tail fragments (M) with S100A4 depends on [Ca^2+], with little detectable binding in the absence of Ca^2+.[2,7,17] Scheme 1 presents a minimal pathway describing the thermodynamics and kinetics of this interaction, where arrow lengths indicate the approximate position of the equilibria involved.
[formula] Scheme 1 Ca2+ and myosin peptide (M) binding to S100A4.
The binding of Ca^2+ and a target peptide to S100A4, as shown in Scheme 1, is thermodynamically coupled so that K1K2 = K0K3. For simplicity, we assume a 1:1 stoichiometry and independent binding sites, which are unlikely to be true at least for the longer fragments. However, the trends in binding remain valid for more complex cases. Binding of target peptides to S100A4 in the absence of Ca^2+ is weak (K0 > 100 μM), while binding of target peptides to S100A4 in the presence of Ca^2+ (K2) is around a micromolar or less for longer fragments. Knowing that Ca^2+ binding to S100A4 has K1 = 2–5 μM (from the ITC data above and the literature[14,17,18]) requires that Ca^2+ binding to the M–S100A4 complex be very tight (K3 < 0.15 μM and even lower for M200). The latter cannot be easily determined directly as it requires protein concentrations greater than K0 (i.e., >>100 μM) so that the proteins remain bound together throughout the titration with Ca^2+. However, K3 is readily determined by calculation because values or limits for K0, K1, and K2 are available (Table 2). This aspect is addressed further below for M200, which has the complication of forming filaments at the ionic strength used.

For assay [4], the target named is T1, S100A4. The experiment in a line: Competition of M32/M16^N with M200 for S100A4 (turbidity). It is filed as biochemical. To be noted: 250 μM peptide, 5 μM M200, 10 μM S100A4, Ca^2+. The protocol: Fig. 9 Dissociation of M200 filaments by S100A4. (a) Initially, M200 was added (i) from a concentrated stock in 0.5 M NaCl to give a final concentration of 5 μM M200 (with respect to the polypeptide chain) in 100 mM NaCl, 10 mM Hepes, and 0.1 mM Ca^2+ at pH 7.5 and 20 °C. A biphasic rise in turbidity was recorded for 200 s (continuous line). Then 10 μM S100A4 (with respect to monomer concentration) was added (ii), followed by 0.2 mM EGTA (iii) and 1 mM Ca^2+ (iv). […] (b) M200 was diluted (i) into 100 mM NaCl to form filaments as in (a), then 5 μM S100A4 was added (ii), causing a 54% drop in turbidity. A further 5 μM S100A4 (iii) caused turbidity to fall to almost zero. (c) Stopped-flow records monitoring the dissociation of 5 μM M200 filaments on jumping [NaCl] from 100 mM to 120 mM NaCl. Other components of the buffer were 20 mM Hepes, 1 mM Mg^2+, and 100 μM Ca^2+ at pH 7.5 and 20 °C. […] In the presence of 20 μM S100A4 (lower trace), the turbidity decreased by 87% with a rate constant of 0.2 s^− 1.
Further information on Scheme 2 was obtained from competition assays. […] An independent estimate of K5 based on the Ca^2+ dependence of the turbidity assay yielded a value of 0.003 μM (see Supplementary Data).
The decrease in fluorescence, […]
that F-M16N binding was slightly faster. […]
as §1

The structures appear in SMILES notation. Like-named read-outs stand apart in the source and are kept apart here.

T1 sequence (P26447 whole entry): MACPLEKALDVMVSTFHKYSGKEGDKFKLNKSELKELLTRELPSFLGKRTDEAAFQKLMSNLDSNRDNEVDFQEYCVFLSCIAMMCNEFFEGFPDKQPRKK

Take `CSCC[C@H](NC(=O)[C@H](C)NC(=O)[C@H](CC(=O)O)NC(=O)[C@H](C)NC(C)=O)C(=O)N[C@@H](CC(N)=O)C(=O)N[C@@H](CCCNC(=N)N)C(=O)N[C@@H](CCC(=O)O)C(=O)N[C@H](C(=O)N[C@@H](CO)C(=O)N[C@@H](CO)C(=O)N[C@@H](CC(C)C)C(=O)N[C@@H](CCCCN)C(=O)N[C@@H](CC(N)=O)C(=O)N[C@@H](CCCCN)C(=O)N[C@@H](CC(C)C)C(=O)N[C@@H](CCCNC(=N)N)C(=O)N[C@@H](CCCNC(=N)N)C(=O)NCC(=O)N[C@@H](CC(=O)O)C(=O)N[C@@H](CC(C)C)C(=O)N1CCC[C@H]1C(=O)N[C@@H](Cc1ccccc1)C(=O)N[C@H](C(=O)N[C@H](C(=O)N1CCC[C@H]1C(=O)N[C@@H](CCCNC(=N)N)C(=O)N[C@@H](CCCNC(=N)N)C(=O)N[C@@H](CCSC)C(=O)N[C@@H](C)C(=O)N[C@@H](CCCNC(=N)N)C(=O)N[C@@H](CCCCN)C(=O)NCC(N)=O)C(C)C)C(C)C)C(C)C` [M32]: the “kobs, Ca^2+ dissociation with peptide” value on S100A4 [1] (50 μM peptide premixed with 10 μM S100A4, 100 mM NaCl, 10 mM Hepes, 100 μM Ca^2+, pH 7.5, 20 °C) amounted to 3.3 s^− 1. Moreover, the “stoichiometry (discussion)” value on S100A4 [1] (S100A4 concentration from absorbance at 280 nm) was “one mol of M32 peptide binds to two S100A4 monomers”. In addition, on S100A4 [2], the “dissociation rate constants, F-M16N vs M32” value is on record as “similar”. Besides, the Kd on S100A4 [3] (Ca^2+ binding to peptide–S100A4, limit from K3 = K1K2/K0, read-out: K3) was < 0.15 µM; at S100A4 [3] (peptide binding to S100A4 without Ca^2+, read-out: K0), > 100 µM. In addition, the “k− 3” value on S100A4 [3] (Ca^2+ dissociation from peptide–S100A4–Ca^2+) is 3.2 s^− 1. The k2 entry at S100A4 [3] (peptide association to S100A4–Ca^2+) is “∼ 2 μM^− 1 s^− 1”. Besides, the “k− 2” value at S100A4 [3] (peptide dissociation from S100A4–Ca^2+) was “∼ 6 s^− 1”. For the same compound, the “inhibition of turbidity change amplitude” value on S100A4 [4] is recorded as 50%.
